In patent US20140120083A1, “TREATMENT OF CANCERS USING PI3 KINASE ISOFORM MODULATORS” (INFINITY PHARMACEUTICALS, INC., priority 2012, published 2014):
Values joined by “and” are separate entries in the source; they are usually repeats but may differ in a detail not shown here. Identical values can stand only once. “Also recorded” adds a separate entry of the source. Marks after values point to notes of the source that are not given here.

Legend:
[1] = Phase 1 study in advanced hematologic malignancies, safety
Pharmacokinetics, rat = format: in vivo, Sprague-Dawley rats
PI3K-δ and PI3K-γ = assay: Phase 1 study in advanced hematologic malignancies, pharmacodynamics; format: in vivo, human
Procedure: PK and PD markers were evaluated after the first dose (e.g., 8 mg BID) and at steady state. PD activity (PI3K inhibition) in whole blood was evaluated using a basophil activation assay which measured reduction in CD63 expression on the surface of basophils following ex vivo stimulation.

[2] = Plasma protein binding, human; format: in vitro ADME; details: 100 μM (41700 ng/mL)
From the text: […]. […] […].

[3] = Embryo/fetal developmental toxicity, rabbit
[4] = Tissue distribution of radiolabelled compound; format: in vivo; details: rat, radiolabelled Compound 292, majority of tissues
Pharmacokinetics, dog = format: in vivo, Beagle dogs; details: for Foral: AUC0-last; for clearance / Vd / AUC(0-inf) / AUC(0-t) / Cmax / half-life / Tmax: beagle, in vivo; for Vd: read-out: Vss; for AUC(0-t): read-out: AUC0-last (AUC0-24)
PI3K δ = PI3K δ (Homo sapiens, UniProt O00329); assay: Clinical study in healthy subjects, basophil activation (CD63 on CCR3+ basophils, ex vivo anti-FcεR1); design: from tissue; host or cells: human whole blood (basophils)
PI3K δ, sequence (O00329 whole entry): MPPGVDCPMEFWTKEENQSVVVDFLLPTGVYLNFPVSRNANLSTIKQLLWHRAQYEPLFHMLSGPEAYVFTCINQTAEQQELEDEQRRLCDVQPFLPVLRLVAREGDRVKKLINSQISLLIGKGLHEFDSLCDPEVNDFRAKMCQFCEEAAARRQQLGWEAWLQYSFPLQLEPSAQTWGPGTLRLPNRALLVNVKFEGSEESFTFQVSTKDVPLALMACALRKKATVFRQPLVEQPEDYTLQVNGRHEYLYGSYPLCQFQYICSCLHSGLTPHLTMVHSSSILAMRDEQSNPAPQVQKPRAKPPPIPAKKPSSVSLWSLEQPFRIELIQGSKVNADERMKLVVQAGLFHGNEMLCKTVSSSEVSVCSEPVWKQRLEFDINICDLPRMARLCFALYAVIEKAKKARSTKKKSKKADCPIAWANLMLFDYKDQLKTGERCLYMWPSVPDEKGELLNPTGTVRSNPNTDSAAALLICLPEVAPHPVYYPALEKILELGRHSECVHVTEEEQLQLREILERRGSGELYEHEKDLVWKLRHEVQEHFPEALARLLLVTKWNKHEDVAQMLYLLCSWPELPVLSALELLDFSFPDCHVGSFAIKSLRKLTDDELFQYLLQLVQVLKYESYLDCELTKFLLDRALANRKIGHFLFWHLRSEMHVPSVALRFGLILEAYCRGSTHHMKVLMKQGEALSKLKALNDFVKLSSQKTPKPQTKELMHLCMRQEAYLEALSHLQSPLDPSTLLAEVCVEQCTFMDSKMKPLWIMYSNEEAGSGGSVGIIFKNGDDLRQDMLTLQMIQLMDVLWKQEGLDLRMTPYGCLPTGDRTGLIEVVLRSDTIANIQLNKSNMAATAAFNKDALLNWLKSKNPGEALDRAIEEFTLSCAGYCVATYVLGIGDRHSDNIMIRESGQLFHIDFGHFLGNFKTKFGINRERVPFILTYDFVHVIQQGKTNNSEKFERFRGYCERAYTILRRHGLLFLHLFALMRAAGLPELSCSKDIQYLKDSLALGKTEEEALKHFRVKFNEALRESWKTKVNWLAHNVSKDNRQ
PI3K δ, sequence (P27986 whole entry partner): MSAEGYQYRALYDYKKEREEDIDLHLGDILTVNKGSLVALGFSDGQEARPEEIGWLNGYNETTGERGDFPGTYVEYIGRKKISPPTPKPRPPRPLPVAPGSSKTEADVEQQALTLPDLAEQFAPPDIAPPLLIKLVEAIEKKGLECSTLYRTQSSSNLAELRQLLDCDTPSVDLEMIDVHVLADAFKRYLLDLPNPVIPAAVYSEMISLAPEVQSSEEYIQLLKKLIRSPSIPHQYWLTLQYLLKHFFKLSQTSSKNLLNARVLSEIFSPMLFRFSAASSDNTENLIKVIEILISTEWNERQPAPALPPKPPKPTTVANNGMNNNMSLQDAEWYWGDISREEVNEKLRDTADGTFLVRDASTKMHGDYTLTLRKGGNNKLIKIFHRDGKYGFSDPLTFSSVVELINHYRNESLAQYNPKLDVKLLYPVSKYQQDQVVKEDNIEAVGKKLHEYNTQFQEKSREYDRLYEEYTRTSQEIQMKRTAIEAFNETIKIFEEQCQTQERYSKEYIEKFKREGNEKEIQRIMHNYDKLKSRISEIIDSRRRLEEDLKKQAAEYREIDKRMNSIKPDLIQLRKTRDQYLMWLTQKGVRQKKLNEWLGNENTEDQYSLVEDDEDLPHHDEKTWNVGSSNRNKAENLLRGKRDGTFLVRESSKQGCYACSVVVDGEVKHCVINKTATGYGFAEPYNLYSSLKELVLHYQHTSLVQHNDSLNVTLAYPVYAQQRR

[5] = Embryo/fetal developmental toxicity, rat
[6] = Sprague-Dawley, in vivo, IV, 2 mg/kg
[7] = Sprague-Dawley, in vivo, PO, 10 mg/kg
[8] = po, 5 mg/kg, 5 mg/kg (study with 0.5 mg/kg IV)
[9] = po, 5 mg/kg, 5 mg/kg (study with 1 mg/kg IV)

C[C@H](Nc1ncnc2[nH]cnc12)c1cc2cccc(Cl)c2c(=O)n1-c1ccccc1 [Compound 292]
New Grade 4 ANC ([1]; Safety Population (n = 55)): 5 n | Related AE ([1]; Safety Population (n = 55)): 31 n | Related Grade 3 AE ([1]; Safety Population (n = 55)): 14 n | Related Grade 4 AE ([1]; Safety Population (n = 55)): 6 n | SAE ([1]; Safety Population (n = 55)): 11 n | MTD ([1]; after dose escalation to 75 mg BID): not yet reached | tolerability ([1]; patients with advanced hematologic malignancies): well tolerated; also recorded: well-tolerated | clearance (Pharmacokinetics, rat): low to moderate | half-life (Pharmacokinetics, rat): less than 2 hrs | volume of distribution (Pharmacokinetics, rat): high | Foral (Pharmacokinetics, rat; PO, 10 mg/kg): 57% | AUC(0-inf) (Pharmacokinetics, rat; [6]): 1160 ng·h/mL | AUC(0-t) (Pharmacokinetics, rat; [6]): 1150 ng·h/mL | Cmax (Pharmacokinetics, rat; [6]): 1520 ng/mL | Tmax (Pharmacokinetics, rat; [6]): 4.98 min | clearance (Pharmacokinetics, rat; Sprague-Dawley, in vivo, IV, 2 mg/kg, read-out: Cl (converted)): 30.5 mL/min/kg | half-life (Pharmacokinetics, rat; Sprague-Dawley, in vivo, IV, 2 mg/kg, read-out: T1/2 (converted)): 43.8 min | Vd (Pharmacokinetics, rat; Sprague-Dawley, in vivo, IV, 2 mg/kg, read-out: Vss): 1.66 L/kg | AUC(0-inf) (Pharmacokinetics, rat; [7]): 3300 ng·h/mL | AUC(0-t) (Pharmacokinetics, rat; [7]): 2930 ng·h/mL | Cmax (Pharmacokinetics, rat; [7]): 785 ng/mL | Tmax (Pharmacokinetics, rat; [7]): 72 min | half-life (Pharmacokinetics, rat; Sprague-Dawley, in vivo, PO, 10 mg/kg, read-out: T1/2 (converted)): 144 min | AKT phosphorylation in CLL/SLL cells (PI3K-δ and PI3K-γ; flow cytometry, after one dose (25 mg)): rapid and sustained inhibition | doses achieving complete inhibition of PI3K-δ (PI3K-δ and PI3K-γ; patients): ≥ 15 mg BID | doses increasingly suppressing PI3K-γ (PI3K-δ and PI3K-γ; patients): ≥ 25 mg BID | protein bound [2]: 85.9% | NOAEL ([3]; female, rabbit, in vivo): 75 mg/kg/day | mean AUC0-24 hr at the NOAEL ([3]; pregnant rabbits, last day of dosing): 66200 ng·h/mL | maternal and fetal NOAEL ([3]; rabbit): 900 mg/m^2/day | radioactivity in tissues at 24 hr [4]: without quantifiable levels of radioactivity | Foral (Pharmacokinetics, dog; PO, 5 mg/kg, 0.5 mg/kg IV dose as reference): 97^g,i % | Foral (Pharmacokinetics, dog; PO, 5 mg/kg, 1 mg/kg IV dose as reference): 40% and 40^h,i % | clearance (Pharmacokinetics, dog; IV, 0.5 mg/kg): 0.85 mL/min/kg | Vd (Pharmacokinetics, dog; IV, 0.5 mg/kg): 0.13 L/kg | clearance (Pharmacokinetics, dog; IV, 1 mg/kg): 3.23 mL/min/kg | Vd (Pharmacokinetics, dog; IV, 1 mg/kg): 0.493 L/kg | AUC(0-inf) (Pharmacokinetics, dog; iv, 0.5 mg/kg): 11900 ng·h/mL | AUC(0-t) (Pharmacokinetics, dog; iv, 0.5 mg/kg, IV, 0.5 mg/kg): 11700 ng·h/mL | Cmax (Pharmacokinetics, dog; iv, 0.5 mg/kg, IV, 0.5 mg/kg, read-out: Cmax (reported value is C0)): 4410 ng/mL | half-life (Pharmacokinetics, dog; iv, 0.5 mg/kg, IV, 0.5 mg/kg, read-out: T1/2 (converted)): 120 min | AUC(0-inf) (Pharmacokinetics, dog; iv, 1 mg/kg): 6270 ng·h/mL | AUC(0-t) (Pharmacokinetics, dog; iv, 1 mg/kg, IV, 1 mg/kg): 5880 ng·h/mL | Cmax (Pharmacokinetics, dog; iv, 1 mg/kg, IV, 1 mg/kg, read-out: Cmax (reported value is C0)): 1800 ng/mL | half-life (Pharmacokinetics, dog; iv, 1 mg/kg, IV, 1 mg/kg, read-out: T1/2 (converted)): 110 min | AUC(0-inf) (Pharmacokinetics, dog; [8]): 107000 ng·h/mL | Tmax (Pharmacokinetics, dog; [8]): 3 h | AUC(0-inf) (Pharmacokinetics, dog; [9]): 13800 ng·h/mL | Tmax (Pharmacokinetics, dog; [9]): 1.33 h | AUC(0-t) (Pharmacokinetics, dog; po, 5 mg/kg, PO, 5 mg/kg (study with 0.5 mg/kg IV)): 105000 ng·h/mL | Cmax (Pharmacokinetics, dog; po, 5 mg/kg, PO, 5 mg/kg (study with 0.5 mg/kg IV), read-out: Cmax): 9600 ng/mL | half-life (Pharmacokinetics, dog; po, 5 mg/kg, PO, 5 mg/kg (study with 0.5 mg/kg IV), read-out: T1/2 (converted)): 234 min | AUC(0-t) (Pharmacokinetics, dog; po, 5 mg/kg, PO, 5 mg/kg (study with 1 mg/kg IV)): 10900 ng·h/mL | Cmax (Pharmacokinetics, dog; po, 5 mg/kg, PO, 5 mg/kg (study with 1 mg/kg IV), read-out: Cmax): 2370 ng/mL | half-life (Pharmacokinetics, dog; po, 5 mg/kg, PO, 5 mg/kg (study with 1 mg/kg IV), read-out: T1/2 (converted)): 189 min | half-life (Pharmacokinetics, dog; read-out: half-life (converted)): 120 min | basophil activation (CD63 expression on CCR3+ basophils) (PI3K δ; all single and multiple dose levels): dose-dependent reduction; also recorded: reduced in a dose-dependent manner | dose at which maximal PD response was achieved (PI3K δ; single dose): 5 mg | NOAEL ([5]; female, rat, in vivo): 35 mg/kg/day | mean AUC0-24 hr at the NOAEL ([5]; pregnant rats, last day of dosing): 62200 ng·h/mL | maternal and fetal NOAEL ([5]; rat): 210 mg/m^2/day
